The target of assay [1] is T1, human orexin-1 receptor (hOX1R) (Homo sapiens, UniProt O43613).
T1 construct: expressed in transfected cells; host or cells: Chinese hamster ovary (CHO) cells, grown under G418 selection
T1 sequence (O43613 1-425): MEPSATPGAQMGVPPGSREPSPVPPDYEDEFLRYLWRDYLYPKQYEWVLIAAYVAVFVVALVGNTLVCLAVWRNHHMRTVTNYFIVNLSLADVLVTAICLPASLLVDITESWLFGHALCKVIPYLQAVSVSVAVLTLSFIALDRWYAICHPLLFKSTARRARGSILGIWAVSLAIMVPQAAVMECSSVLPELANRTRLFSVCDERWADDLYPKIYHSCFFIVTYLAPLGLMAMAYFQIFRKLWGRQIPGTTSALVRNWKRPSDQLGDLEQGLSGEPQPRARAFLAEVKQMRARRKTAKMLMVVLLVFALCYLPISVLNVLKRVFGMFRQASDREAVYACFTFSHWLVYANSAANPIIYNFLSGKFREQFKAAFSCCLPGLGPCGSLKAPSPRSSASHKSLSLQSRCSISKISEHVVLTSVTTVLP
In words: FLIPR Ca2+ Flux Assay, CHO cells expressing hOX1R. Type of assay: cell-based. To be noted: agonist 70 pM Ala-6,12 orexin-A. On the procedure: (§1) Chinese hamster ovary (CHO) cells expressing the human orexin-1 receptor (hOX1R) or the human orexin-2 receptor (hOX2R) were grown in Iscove's modified DMEM containing 2 mM L-glutamine, […], 1% hypoxanthine-thymidine supplement, 100 U/ml penicillin, 100 μg/ml streptomycin and 10% heat-inactivated fetal calf serum (FCS). The cells were seeded at 20,000 cells/well into Becton-Dickinson black 384-well clear bottom sterile plates coated with poly-D-lysine. All reagents were from GIBCO-Invitrogen Corp. The seeded plates were incubated overnight at 37° C. and 5% CO2. Ala-6,12 human orexin-A, used as the agonist, was prepared as a 1 mM stock solution in 1% bovine serum albumin (BSA) and diluted in assay buffer (HBSS containing 20 mM HEPES, 0.1% BSA and 2.5 mM probenecid, pH7.4) for use in the assay at a final concentration of 70 pM. Test compounds were prepared as 10 mM stock solution in DMSO, then diluted in 384-well plates, first in DMSO, then assay buffer.
On the day of the assay, cells were washed 3× with 100 μl assay buffer and then incubated for 60 minutes (37° C., 5% CO2) in 60 μl assay buffer containing 1 μM Fluo-4AM ester, 0.02% pluronic acid, and 1% BSA. The dye loading solution was then aspirated and cells were washed 3× with 100 μl assay buffer. 30 μl of that same buffer was left in each well. Within the Fluorescent Imaging Plate Reader (FLIPR, Molecular Devices), test compounds were added to the plate in a volume of 25 μl, incubated for 5 minutes, and then 25 μl of agonist was added. Fluorescence was measured for each well at 1 second intervals for 5 minutes, and the height of each fluorescence peak was compared to the height of the fluorescence peak induced by 70 pM of Ala-6,12 orexin-A with buffer in place of test compound.

The target in assay [2] is T2, human orexin-2 receptor (hOX2R) (Homo sapiens, UniProt O43614).
T2 construct: expressed in transfected cells; host or cells: Chinese hamster ovary (CHO) cells, grown under G418 selection
T2 sequence (O43614 1-444): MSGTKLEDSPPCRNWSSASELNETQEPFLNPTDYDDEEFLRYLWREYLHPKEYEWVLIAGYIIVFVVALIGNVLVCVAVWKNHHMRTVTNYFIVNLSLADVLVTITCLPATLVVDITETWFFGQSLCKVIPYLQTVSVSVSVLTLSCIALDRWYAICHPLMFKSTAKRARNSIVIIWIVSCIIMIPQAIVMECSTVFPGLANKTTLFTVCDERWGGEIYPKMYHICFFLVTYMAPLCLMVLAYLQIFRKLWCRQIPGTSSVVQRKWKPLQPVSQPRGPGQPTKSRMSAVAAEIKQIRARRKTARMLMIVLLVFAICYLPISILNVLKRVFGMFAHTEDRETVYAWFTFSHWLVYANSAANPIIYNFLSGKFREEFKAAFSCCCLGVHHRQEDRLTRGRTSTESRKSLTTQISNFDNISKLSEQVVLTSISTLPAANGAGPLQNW
In words: FLIPR Ca2+ Flux Assay, CHO cells expressing hOX2R. To be noted: agonist 70 pM Ala-6,12 orexin-A. Type of assay: cell-based. The method, then:
The utility of the compounds in accordance with the present invention as orexin receptor OX1R and/or OX2R antagonists may be readily determined without undue experimentation by methodology well known in the art, including the “FLIPR Ca^2+ Flux Assay” (Okumura et al., Biochem. Biophys. Res. Comm. 280:976-981, 2001). In a typical experiment the OX1 and OX2 receptor antagonistic activity of the compounds of the present invention was determined in accordance with the following experimental method. For intracellular calcium measurements, Chinese hamster ovary (CHO) cells expressing the rat orexin-1 receptor or the human orexin-2 receptor, are grown in Iscove's modified DMEM containing 2 mM L-glutamine, […], 1% hypoxanthine-thymidine supplement, 100 U/ml penicillin, 100 μg/ml streptomycin and 10% heat-inactivated fetal calf serum (FCS). The cells are seeded at 20,000 cells/well into Becton-Dickinson black 384-well clear bottom sterile plates coated with poly-D-lysine. All reagents were from GIBCO-Invitrogen Corp. The seeded plates are incubated overnight at 37° C. and 5% CO2. Ala-6,12 human orexin-A as the agonist is prepared as a 1 mM stock solution in 1% bovine serum albumin (BSA) and diluted in assay buffer (HBSS containing 20 mM HEPES, 0.1% BSA and 2.5 mM probenecid, pH7.4) for use in the assay at a final concentration of 70 pM. Test compounds are prepared as 10 mM stock solution in DMSO, then diluted in 384-well plates, first in DMSO, then assay buffer. On the day of the assay, cells are washed 3 times with 100 μl assay buffer and then incubated for 60 min (37° C., 5% CO2) in 60 μl assay buffer containing 1 μM Fluo-4AM ester, 0.02% pluronic acid, and 1% BSA. The dye loading solution is then aspirated and cells are washed 3 times with 100 μl assay buffer. 30 μl of that same buffer is left in each well. Within the Fluorescent Imaging Plate Reader (FLIPR, Molecular Devices), test compounds are added to the plate in a volume of 25 μl, incubated for 5 min and finally 25 μl of agonist is added. Fluorescence is measured for each well at 1 second intervals for 5 minutes and the height of each fluorescence peak is compared to the height of the fluorescence peak induced by 70 pM Ala-6,12 orexin-A with buffer in place of antagonist. For each antagonist, IC50 value (the concentration of compound needed to inhibit 50% of the agonist response) is determined. Alternatively, compound potency can be assessed by a radioligand binding assay (described in Bergman et. al. Bioorg. Med. Chem. Lett. 2008, 18, 1425-1430) in which the inhibition constant (Ki) is determined in membranes prepared from CHO cells expressing either the OX1 or OX2 receptor. The intrinsic orexin receptor antagonist activity of a compound which may be used in the present invention may be determined by these assays.
as §1, with “buffer. […]” for “buffer.”
(In general: Calcium flux is commonly read through the fluorescence of an indicator in the cells.)

Turning to `C[C@@H]1CC[C@@H](Oc2ncccc2C(C)(C)O)CN1C(=O)c1ccc(F)cc1C1CC1` [Example 14, 2-[2-({(3R,6R)-1-[(2-cyclopropyl-4-fluorophenyl)carbonyl]-6-methylpiperidin-3-yl}oxy)pyridin-3-yl]propan-2-ol], the IC50 came to 475 nM in assay [1] and 49 nM in assay [2].

For `COc1ccc(C(=O)N2C[C@H](Oc3ncccc3C(C)(C)O)CC[C@H]2C)c(C2CC2)c1` [Example 15, 2-[2-({(3R,6R)-1-[(2-cyclopropyl-4-methoxyphenyl)carbonyl]-6-methylpiperidin-3-yl}oxy)pyridin-3-yl]propan-2-ol], the IC50 in assay [1] is 2300 nM; in assay [2], 148 nM.

For the compound `Cc1ccc(C(=O)N2C[C@H](Oc3ncccc3C(C)(C)O)CC[C@H]2C)c(C2CC2)c1` [Example 16, 2-[2-({(3R,6R)-1-[(2-cyclopropyl-4-methylphenyl)carbonyl]-6-methylpiperidin-3-yl}oxy)pyridin-3-yl]propan-2-ol], the IC50 in assay [1] was found to be 349 nM; in assay [2], 135 nM.

Regarding `Cc1ccc(-n2nccn2)c(C(=O)N2C[C@H](Oc3ncccc3C(C)(C)O)CC[C@H]2C)c1` [Example 17, 2-(2-{[(3R,6R)-6-methyl-1-{[5-methyl-2-(2i-1,2,3-triazol-2-yl)phenyl]carbonyl}piperidin-3-yl]oxy}pyridin-3-yl)propan-2-ol], the IC50 in assay [1] stood at 50 nM; in assay [2], 37 nM.

In the case of `C[C@@H]1CC[C@@H](Oc2ncccc2C(C)(C)O)CN1C(=O)c1ccsc1-n1nccn1` [Example 18, 2-(2-{[(3R,6R)-6-methyl-1-{[2-(2H-1,2,3-triazol-2-yl)thiophen-3-yl]carbonyl}piperidin-3-yl]oxy}pyridin-3-yl)propan-2-ol], the IC50 is 18 nM in assay [1] and 9 nM in assay [2].

As for `C[C@@H]1CC[C@@H](Oc2ncccc2C(C)(C)O)CN1C(=O)c1ccsc1-c1ncccn1` [Example 19, 2-[2-({(3R,6R)-6-Methyl-1-[(2-pyrimidin-2-ylthiophen-3-yl)carbonyl]piperidin-3-yl}oxy)pyridin-3-yl]propan-2-ol], the IC50 is 12 nM in assay [1] and 13 nM in assay [2].

`C[C@@H]1CC[C@@H](Oc2ncccc2C(C)(C)O)CN1C(=O)c1cccc(F)c1-c1ncccn1` [Example 20, 2-[2-({(3R,6R)-1-[(3-fluoro-2-pyrimidin-2-yl-phenyl)carbonyl]-6-methyl-piperidin-3-yl}oxy)pyridin-3-yl]propan-2-ol]: the concentration for half-maximal inhibition (IC50) is 609 nM in assay [1] and 98 nM in assay [2].

With `C[C@@H]1CC[C@@H](Oc2ncccc2C(C)(C)O)CN1C(=O)c1cc(F)ccc1-c1ncccn1` [Example 22, 2-[2-({(3R,6R)-1-[(5-fluoro-2-pyrimidin-2-yl-phenyl)carbonyl]-6-methylpiperidin-3-yl}oxy)pyridin-3-yl]propan-2-ol], the IC50 in assay [1] came out at 140 nM; in assay [2], 82 nM.

Regarding `C[C@@H]1CC[C@@H](Oc2ncccc2C(C)(C)O)CN1C(=O)c1ccccc1-c1ncccn1` [Example 23, 2-[2-({(3R,6R)-6-methyl-1-[(2-pyrimidin-2-ylphenyl)carbonyl]piperidin-3-yl}oxy)pyridin-3-yl] propan-2-ol], the results for the IC50 in assay [1] and in assay [2] were 95 nM and 69 nM, respectively.

Consider `C[C@@H]1CC[C@@H](Oc2ncccc2C(C)(C)O)CN1C(=O)c1sccc1-c1ncccn1` [Example 24, 2-[2-({(3R,6R)-6-methyl-1-[(3-pyrimidin-2-yl-thiophen-2-yl)carbonyl]piperidin-3-yl}oxy)pyridin-3-yl] propan-2-ol], for which the IC50 in assay [1] was 77 nM; in assay [2] it was 35 nM.

Take `Cc1ccc(C(C)(C)O)c(O[C@@H]2CC[C@@H](C)N(C(=O)c3ccccc3-n3nccn3)C2)n1` [Example 25, 2-(6-Methyl-2-{[(3R,6R)-6-methyl-1-{[2-(2H-1,2,3-triazol-2-yl)phenyl]carbonyl}piperidin-3-yl]oxy}pyridin-3-yl)propan-2-ol]: the values for the IC50 in assay [1] and in assay [2] were 55 nM and 77 nM, respectively.

Regarding `COc1ccnc(O[C@@H]2CC[C@@H](C)N(C(=O)c3ccccc3-n3nccn3)C2)c1C(C)O` (stereo partly drawn) [Example 26, 1-(4-Methoxy-2-{[(3R,6R)-6-methyl-1-{[2-(2H-1,2,3-triazol-2-yl)phenyl]carbonyl}piperidin-3-yl]oxy}pyridin-3-yl)ethanol], the 50% inhibitory concentration (IC50) was 463 nM in assay [1] and 22.5 nM in assay [2].

Regarding `COc1ccnc(O[C@@H]2CC[C@@H](C)N(C(=O)c3ccccc3-n3nccn3)C2)c1C(C)(C)O` [Example 27, 2-(4-Methoxy-2-{[(3R,6R)-6-methyl-1-{[2-(2H-1,2,3-triazol-2-yl)phenyl]carbonyl}piperidin-3-yl]oxy}pyridin-3-yl)propan-2-ol], the concentration for half-maximal inhibition (IC50) in assay [1] turned out to be 395 nM; in assay [2], 25 nM.

Usually IC50 stands for the concentration needed to halve the response being measured. A higher IC50 goes with lower potency.

The values are drawn from patent US20160102073A1, “2-HYDROXYMETHYL-SUBSTITUTED OREXIN RECEPTOR ANTAGONISTS” (MERCK SHARP & DOHME CORP., priority 2013, published 2016).
